{
  "source": "patent US9089485B2",
  "about": "“Pharmaceutical compositions of entacapone, levodopa and carbidopa with improved bioavailability” (Wockhardt Ltd., priority 2008, dated 2015)",
  "key": {"[1]": {"conditions": "background description; cited from earlier work"}, "[2]": {"conditions": "background description; cited from earlier work", "remark": "listed apart in the source"}, "[3]": {"conditions": "co-micronized with sugar alcohols, from entacapone, levodopa, carbidopa formulation vs not co-micronized"}},
  "data": [
    {"smiles": "C[C@@](Cc1ccc(O)c(O)c1)(NN)C(=O)O", "note": "[Carbidopa, (−)-L-(α-hydrazino-(α-methyl-β-(3,4-dihydroxybenzene)propanoic acid monohydrate]", "values": [
      {"measurement": "Solubility in water", "setting": "[1]", "result": "slightly soluble"}
    ]},
    {"smiles": "CCN(CC)C(=O)/C(C#N)=C/c1cc(O)c(O)c([N+](=O)[O-])c1", "note": "[Entacapone, (E)-2-cyano-3-(3,4-dihydroxy-5-nitrophenyl)-N,N-diethyl-2-propenamide]", "values": [
      {"measurement": "Biopharmaceutics Classification system class", "setting": "[2]", "result": "class IV"},
      {"measurement": "Change in percent drug release of entacapone", "setting": "[3]", "result": "significant increase"}
    ]},
    {"smiles": "N[C@@H](Cc1ccc(O)c(O)c1)C(=O)O", "note": "[Levodopa, (−)-L-α-amino-β-(3,4-dihydroxybenzene) propanoic acid]", "values": [
      {"measurement": "Solubility in water", "setting": "[1]", "result": "slightly soluble"}
    ]}
  ]
}
